Reference: patent publication US20220041616A1, “SPIRO COMPOUND AND MEDICAL USES THEREOF” (The National Institutes of Pharmaceutical R&D Co., Ltd., priority 2018, published 2022)

Legend:
ACC1 = molecular target: T1, ACC1 (Homo sapiens, UniProt Q13085); assay: In vitro inhibition of ACC1 activity, ADP-Glo Kinase Analysis; assay type: biochemical; settings: 1 nM ACC1, 10 μM acetyl-CoA, 20 μM ATP
T1 construct: purchased BPS bioscience
From the text: ADP-Glo™ Kinase Analysis Kit (Promega) is used for the in vitro analysis of the inhibitory effect of the present compound on ACC1 or ACC2. ADP-Glo™ Kinase Analysis is a kinase detection analysis of luminescence method. ADP is produced in the process of catalyzing the substrate by ACC. ADP is converted into ATP which is then converted into light by Ultra-Glo™ luciferase. ADP is quantified by detecting the light signal, thus the enzyme activity can be measured by quantification of the ADP amount produced during the enzyme reaction. The analysis is carried out in two steps: in the first step, after the kinase reaction, a portion of ADP-Glo™ reagent equal in volume to the kinase reaction system is added to terminate the reaction and consume the remaining ATP; in the second step, a kinase detection reagent is added, which not only converts ADP into ATP, but also uses a coupled luciferase/luciferin reaction to detect newly synthesized ATP.
a. 10 mM compound stock solution (the present compound was dissolved in 100% DMSO to prepare the 10 mM stock solution) was diluted 50-fold to 200 μM with 100% DMSO, and then diluted in equal proportions (1:3) in a 96-well dilution plate (249944, Nunc). The gradient concentrations of the compound were 200 μM, 66.67 μM, 22.22 μM, 7.41 μM, 2.47 μM, 0.823 μM, 0.274 μM, 0.0914 μM, 0.0305 μM, 0.0102 μM, 0.00339 μM and 0.00113 μM.
b. 4.5 μL ACC1 working solution (BPS bioscience) (2.22 nM) was added to each well of a 384-well test plate (6007290, Perkin Elmer).
c. 0.5 μL of the serially diluted compound (prepared in step a) was added to each well of the 384-well test plate, which was centrifuged at 1000 rpm for 1 min and then incubated at room temperature for 15 min. The reaction system with compound GS-0976 at a final concentration of 0.1 μM was used as positive control; the reaction system with no compound but DMSO at a final concentration of 5% was used as negative control.
d. In the 384-well test plate (prepared in step c), 5 μL of the substrate working solution was added to each well to start the enzymatic reaction. The plate was centrifuged at 1000 rpm for 1 min and then incubated at room temperature for 30 min. The final concentration of each component in the ACC1 reaction system: 1 nM ACC1, 10 μM acetyl-CoA, 30 mM NaHCO3, and 20 μM ATP. The final concentration of each component in the ACC2 reaction system: 1.1 nM ACC2, 20 μM acetyl-CoA, 20 mM NaHCO3, and 15 μM ATP. Final concentrations of test compounds: 10 μM, 3.33 μM, 1.11 μM, 0.37 μM, 0.123 μM, 0.0411 μM, 0.0137 μM, 0.00457 μM, 0.00152 μM, 0.00051 μM, 0.00017 μM and 0.000056 μM. The final concentration of DMSO was 5% (v/v).
e. 10 μL of ADP-Glo reagent was added to each well of the 384-well test plate (prepared in step d), which was centrifuged at 1000 rpm for 1 min and then incubated at room temperature for 40 min.
f. 20 μL of kinase detection reagent was added to each well of the 384-well test plate (prepared in step e), which was centrifuged at 1000 rpm for 1 min and then incubated at room temperature for 40 min.
g. The chemiluminescence signal was detected with Perkin Elmer EnVision 2104.
ACC1 working solution and substrate working solution were both prepared with 1× kinase reaction buffer. The buffer was consisting of 50 mM HEPES buffer, 2 mM magnesium chloride, 0.01% BRIJ-35, 2 mM potassium citrate, 50 μg/mL BSA and 2 mM DTT.
The average value of the positive and negative control well and the standard deviation were calculated. The inhibition percentage was calculated according to the following formula: 100×[1−(compound−average value of positive control)/(average value of negative control-average value of positive control)].
IC50 of the compound was obtained using GraphPad Prism 6 software according to the following nonlinear fitting formula:
Y=Bottom+(Top−Bottom)/(1+10^((Log IC50−X)×Hillslope)), […]

patients = settings: 10 patients, 20 mg orally once a day for 12 weeks; cited from earlier work
[1] = tested on: patients with non-alcoholic steatohepatitis (NASH); settings: cited from earlier work

SMILES	IC50 (ACC1) [nM]	other results
COc1ccccc1[C@H](CN1C(=O)C2(CCN(C(=O)C(=O)O)CC2)C(=O)c2c1sc(-c1ncco1)c2C)OC1CCOCC1 [Compound 27, (R)-2-(7′-(2-(2-methoxyphenyl)-2-((tetrahydro-2H-pyran-4-yl)oxy)ethyl)-3′-methyl-2′-(oxazol-2-yl)-4′,6′-dioxo-6′,7′-dihydro-4′H-spiro[piperidine-4,5′-thieno[2,3-d]pyridin]-1-yl)-2-oxoacetic Acid]	< 10	–
COC(=O)N1CCC2(CC1)C(=O)c1c(sc(-c3ncco3)c1C)N(C[C@H](OC1CCOCC1)c1ccccc1OC)C2=O [Compound 28, methyl (R)-7′-(2-(2-methoxyphenyl)-2-((tetrahydro-2H-pyran-4-yl)oxy)ethyl)-3′-methyl-2′-(oxazol-2-yl)-4′,6′-dioxo-6′,7′-dihydro-4′H-spiro[piperidine-4,5′-thieno[2,3-d]pyridine]-1-carboxylate]	< 10	–
COc1ccccc1[C@H](CN1C(=O)C2(CCN(C(=O)NCC(=O)O)CC2)C(=O)c2c1sc(-c1ncco1)c2C)OC1CCOCC1 [Compound 29, (R)-(7′-(2-(2-methoxyphenyl)-2-((tetrahydro-2H-pyran-4-yl)oxy)ethyl)-3′-methyl-2′-(oxazol-2-yl)-4′,6′-dioxo-6′,7′-dihydro-4′H-spiro[piperidine-4,5′-thieno[2,3-d]pyridine]-1-carbonyl)glycine]	< 10	–
COc1ccccc1[C@H](CN1C(=O)C2(CCN(S(=O)(=O)O)CC2)C(=O)c2c1sc(-c1ncco1)c2C)OC1CCOCC1 [Compound 30]	< 10	–
COc1ccccc1[C@H](CN1C(=O)C2(CCN(C(N)=O)CC2)C(=O)c2c1sc(-c1ncco1)c2C)OC1CCOCC1 [Compound 31]	< 10	–
CNC(=O)N1CCC2(CC1)C(=O)c1c(sc(-c3ncco3)c1C)N(C[C@H](OC1CCOCC1)c1ccccc1OC)C2=O [Compound 32]	< 10	–
COc1ccccc1[C@H](CN1C(=O)C2(CCN(C(=O)NCCO)CC2)C(=O)c2c1sc(-c1ncco1)c2C)OC1CCOCC1 [Compound 33]	< 10	–
COc1ccccc1[C@H](Cn1c(=O)n(C(C)(C)C(=O)O)c(=O)c2c(C)c(-c3ncco3)sc21)OC1CCOCC1 [GS-0976]	–	liver fat content and non-invasive fibrosis markers (patients): statistically significant improvements; relative decrease of liver fat content ([1]; 12th week, MRI-PDFF): 43%; median cirrhosis, non-invasive marker of fibrosis, by magnetic resonance elastography (MRE) ([1]; 12th week, baseline 3.4 kPa, p=0.049): 3.1 kPa; liver fat content measured by MRI-PDFF ([1]; 12th week, baseline 15.7%, p=0.006): 9.0%; decrease of the amount of denovo fat synthesis from the baseline level, median ([1]; after 12 weeks): 29%; tolerability ([1]; most common adverse events nausea, abdominal pain and diarrhea): well tolerated
